Measurements published in patent publication US20150111896A1, “HEMATOPOIETIC PROTECTION AGAINST CHEMOTHERAPEUTIC COMPOUNDS USING SELECTIVE CYCLIN-DEPENDENT KINASE 4/6 INHIBITORS” (The University of North Carolina at Chapel Hill, priority 2008, published 2015).
“Also recorded” adds a separate entry of the source.

Key:
[1] = tested on: telomerized human diploid fibroblast (tHDF) cells (HS68); assay: Cell proliferation assay (WST-1 or CellTiter-Glo) after chemotherapeutic; details: for protection from chemotherapy-induced cytotoxicity (cell proliferation assays): HS68 (CDK4/6-dependent), pretreatment prior to carboplatin, etoposide or doxorubicin; for chemoprotective effects against doxorubicin (cell viability, CellTiter-Glo) / protection from doxorubicin-induced cytotoxicity (cell viability, WST-1 assay): HS68; for chemoprotective effects against doxorubicin (cell viability, CellTiter-Glo): 16 hours pretreatment, DOX 370 nM 8 hours, viability after 7 days; for protection from doxorubicin-induced cytotoxicity (cell viability, WST-1 assay): absorbance at 450 nm, 7 days recovery
Experimental: (§4) In some embodiments, cell viability is assessed by performing a assay using 2-(4-iodophenyl)-3-(4-nitrophenyl)-5-(2,4-disulfophenyl)-2H-tetrazolium monosodium salt (WST-1), such as described further hereinbelow. In the WST-1 assay, WST-1 is cleaved by a mitochondrial reductase present in viable cells to form a colored product (i.e., formazan) that can be detected by measuring absorbance at a particular wavelength (e.g., 420-480 nm). […] The CellTiter-Glo® assay (CTG assay; Promega, Madison, Wis., United States of America) measures cell viability by measuring ATP concentration in cell lysate.
(§5) Cell lines: Telomerized human diploid fibroblast (tHDF) cells (HS68) were cultured in Dulbecco's Modified Eagle Medium (DMEM) +10% fetal bovine serum (FBS) with any additional compounds. The same conditions were used for A2058 and WM2664, human melanoma cell lines with known RB-pathway mutations: A2058 is RB-null, whereas WM2664 lacks INK4a/ARF. Thus, A2058 cells are CDK4/6-independent, while WM2664 cells are CDK4/6-dependent. Cells were cultured in DMEM+10% FBS.
(§6) Cell proliferation assays: Cell proliferation assays were performed by seeding 1×10^3 cells per well in a 96-well tissue culture plate in 100 μL of growth medium. Cells were treated as indicated with compound from Table 1 and doxorubicin, etoposide or carboplatin. Following treatment, cells were allowed to recover for 7 days in normal growth medium. At the end of the recovery period, cell number was quantified using the VVST-1 cell proliferation assay (TaKaRa Bio USA, Madison, Wis., United States of America) or the CellTiter-Glo® assay (CTG; Promega, Madison, Wis., United States of America). Data is presented as absorbance at 450 nm for the WST assays or Relative Light Units (RLU) for the CTG assays.

[2] = tested on: human RB-null melanoma cells (A2058); assay: as above; details: for protection from chemotherapy-induced cytotoxicity (cell proliferation assays): A2058 (CDK4/6-independent), pretreatment prior to carboplatin, etoposide or doxorubicin; for chemoprotective effects against doxorubicin (cell viability, CellTiter-Glo): A2058, 16 hours pretreatment, DOX 370 nM 8 hours, viability after 7 days
Experimental: as §4, §5, §6

[3] = tested on: human melanoma cells lacking INK4a/ARF (WM2664); assay: as above; details: for protection from chemotherapy-induced cytotoxicity (cell proliferation assays): WM2664 (CDK4/6-dependent), pretreatment prior to carboplatin, etoposide or doxorubicin; for chemoprotective effects against doxorubicin (cell viability, CellTiter-Glo) / protection from doxorubicin-induced cytotoxicity (cell viability, WST-1 assay): WM2664; for chemoprotective effects against doxorubicin (cell viability, CellTiter-Glo): 16 hours pretreatment, DOX 122 nM 8 hours, viability after 7 days; for protection from doxorubicin-induced cytotoxicity (cell viability, WST-1 assay): absorbance at 450 nm, 7 days recovery
Experimental: as §4, §5, §6

[4] = tested on: human RB-null melanoma cells (A2058); assay: Cell cycle analysis (BrdU and propidium iodide, flow cytometry); format: cell-based; details: A2058 (RB-null, CDK4/6-independent), 24 hours treatment
Experimental: (§1) Cells were cultured in DMEM+10% FBS.
(§2) Cell cycle analysis: Cell cycle analysis was performed using BrdU and propidium iodide (both from BD Biosciences Pharmigen, San Jose, Calif., United States of America) following the manufacturer's protocol. Cells were treated for 24 hours with a test compound at a desired dose prior to 15 minutes BrdU pulse, cell harvesting, fixation, staining, and analysis by flow cytometry.
(§3) Histograms of dose-response curves of PD332991 and 2BrIC in HS68, WM2664 and A2058 cells were analyzed using Mod-Fit™ software from Verity Software House (Topsham, Me., United States of America).

[5] = tested on: human melanoma cells lacking INK4a/ARF (WM2664); assay: as above; format: cell-based; details: WM2664 (CDK4/6-dependent), 24 hours treatment
Experimental: as §1, §2, §3

[6] = tested on: telomerized human diploid fibroblast (tHDF) cells (HS68); assay: as above; format: cell-based; details: HS68 (CDK4/6-dependent), 24 hours treatment
Experimental: as §1, §2, §3

Row | Structure (SMILES) | protection from chemotherapy-induced cytotoxicity (cell proliferation assays) [1] | chemoprotective effects against doxorubicin (cell viability, CellTiter-Glo) [1] | protection from chemotherapy-induced cytotoxicity (cell proliferation assays) [2] | chemoprotective effects against doxorubicin (cell viability, CellTiter-Glo) [2] | protection from chemotherapy-induced cytotoxicity (cell proliferation assays) [3] | chemoprotective effects against doxorubicin (cell viability, CellTiter-Glo) [3] | cell cycle effect [4] | cell cycle effect [5] | cell cycle effect [6] | protection from doxorubicin-induced cytotoxicity (cell viability, WST-1 assay) [1] | protection from doxorubicin-induced cytotoxicity (cell viability, WST-1 assay) [3]
1 | COc1ccc(F)c(F)c1C(=O)c1cnc(NC2CCN(S(C)(=O)=O)CC2)nc1N [Compound 7] | failed to protect | absence of chemoprotective effects | failed to protect | absence of chemoprotective effects | failed to protect | absence of chemoprotective effects | did not induce a clean G1 arrest | did not induce a clean G1 arrest; also recorded: does not induce G1 arrest | did not induce a clean G1 arrest; also recorded: does not induce G1 arrest |  | 
2 | CN1CCN(C(=O)c2ccc(Nc3ncc4cnn(C5CCCCC5)c4n3)cc2)CC1 [Compound 11] | failed to protect |  |  |  | failed to protect |  | did not induce a clean G1 arrest | did not induce a clean G1 arrest | did not induce a clean G1 arrest | inability | inability
3 | CN1CCN(c2ccc(Nc3ncc4cnn(C5CCCCC5)c4n3)cc2)CC1 [Compound 8] | failed to protect |  |  |  | failed to protect |  | did not induce a clean G1 arrest | did not induce a clean G1 arrest | did not induce a clean G1 arrest | inability | inability
4 | CN1CCN(Cc2ccc(Nc3ncc4cnn(C5CCCCC5)c4n3)cc2)CC1 [Compound 9] | failed to protect |  |  |  | failed to protect |  | did not induce a clean G1 arrest | did not induce a clean G1 arrest | did not induce a clean G1 arrest | inability | inability
5 | O=c1c(-c2ccc(O)cc2)coc2cc(O)cc(O)c12 [Genistein] | failed to protect | absence of chemoprotective effects | failed to protect | absence of chemoprotective effects | failed to protect | absence of chemoprotective effects | did not induce a clean G1 arrest | did not induce a clean G1 arrest | did not induce a clean G1 arrest |  | 
6 | CN1CC[C@H](c2c(O)cc(O)c3c(=O)cc(-c4ccccc4Cl)oc23)[C@H](O)C1 [flavopiridol] | failed to protect | absence of chemoprotective effects | failed to protect | absence of chemoprotective effects | failed to protect | absence of chemoprotective effects | did not induce a clean G1 arrest | did not induce a clean G1 arrest; also recorded: does not induce G1 arrest | did not induce a clean G1 arrest; also recorded: does not induce G1 arrest |  | 
